# Data published in patent US7875647B2, “Heteroaryl-pyrazole derivatives as cannabinoid CB1 receptor antagonists” (Green Cross Corporation, priority 2006, dated 2011).
# Molecular target: T1, Cannabinoid-1 receptor (CB1R) (Rattus norvegicus, UniProt P20272)
# T1 construct: The tissue obtained from the brain of SD rats was homogenized; from tissue; host or cells: brain of SD rats (membrane pellet of the homogenate)
# Assay: Cannabinoid-1 receptor (CB1R) binding affinity assay ([3H]CP-55940, rat CB-1 receptor binding protocol)
# Details: IC50(nM), brain tissue of SD rats, [3H]CP-55940, 30° C. 60 min
# T1 sequence (P20272 whole entry): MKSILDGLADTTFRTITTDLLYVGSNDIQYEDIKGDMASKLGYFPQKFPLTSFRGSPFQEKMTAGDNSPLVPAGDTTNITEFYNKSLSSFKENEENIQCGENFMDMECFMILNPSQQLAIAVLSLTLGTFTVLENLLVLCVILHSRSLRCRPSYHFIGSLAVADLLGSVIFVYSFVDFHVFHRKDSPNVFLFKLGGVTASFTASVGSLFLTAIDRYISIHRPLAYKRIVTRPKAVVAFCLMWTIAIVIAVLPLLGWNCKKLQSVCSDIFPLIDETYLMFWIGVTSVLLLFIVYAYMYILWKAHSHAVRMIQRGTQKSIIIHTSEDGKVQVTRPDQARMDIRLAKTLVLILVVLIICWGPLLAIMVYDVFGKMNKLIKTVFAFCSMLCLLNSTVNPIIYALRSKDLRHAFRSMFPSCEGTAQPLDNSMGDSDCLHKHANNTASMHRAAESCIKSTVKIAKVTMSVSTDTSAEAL
row,SMILES,IC50 [nM]
1,"CCCCCOC(C)(C)c1nnc(-c2nn(-c3ccc(Cl)cc3Cl)c(-c3ccc(Cl)cc3)c2C)s1 [Example 461, 2-(5-(4-chlorophenyl)-1-(2,4-dichlorophenyl)-4-methyl-1H-pyrazol-3-yl)-5-(2-(pentyloxy)propan-2-yl)-1,3,4-thiadiazole]",13.7
2,"CCc1c(-c2nnc(C3(CC)CC3)o2)nn(-c2ccc(Cl)cc2Cl)c1-c1ccc(Br)cc1 [Example 279, 2-(5-(4-bromophenyl)-1-(2,4-dichlorophenyl)-4-ethyl-1H-pyrazol-3-yl)-5-(1-ethylcyclopropyl)-1,3,4-oxadiazole]",12.8

# Same assay, conditions: brain tissue of SD rats, [3H]CP-55940, 30° C. 60 min; read-out: IC50
row,IC50 [nM],SMILES
1,128,"Cc1c(-c2nnnn2C23CC4CC(CC(C4)C2)C3)nn(-c2ccc(Cl)cc2Cl)c1-c1ccc(Cl)cc1 [Example 605, 1-Adamantyl-5-(5-(4-chlorophenyl)-1-(2,4-dichlorophenyl)-4-methyl-1H-pyrazol-3-yl)-1H-tetrazole]"
2,22.2,"CC(C)(c1ccc(Cl)cc1)c1nnc(-c2nn(-c3ccc(Cl)cc3Cl)c(-c3ccc(Cl)cc3)c2Br)o1 [Example 343, 2-(4-bromo-5-(4-chlorophenyl)-1-(2,4-dichlorophenyl)-1H-pyrazol-3-yl)-5-(2-(4-chlorophenyl)propan-2-yl)-1,3,4-oxadiazole]"
3,7.05,"CCc1c(-c2nnc(C3(c4ccc(C)cc4)CC3)o2)nn(-c2ccc(Cl)cc2Cl)c1-c1ccc(Cl)cc1 [Example 151, 2-(5-(4-chlorophenyl)-1-(2,4-dichlorophenyl)-4-ethyl-1H-pyrazol-3-yl)-5-(1-p-tolylcyclopropyl)-1,3,4-oxadiazole]"
4,177,"CCCCC(OCc1ccccc1)c1nnc(-c2nn(-c3ccc(Cl)cc3Cl)c(-c3ccc(Cl)cc3)c2C)o1 (centres unmarked) [Example 236, 2-(1-(benzyloxy)pentyl)-5-(5-(4-chlorophenyl)-1-(2,4-dichlorophenyl)-4-methyl-1H-pyrazol-3-yl)-1,3,4-oxadiazole]"
5,8.8,"Cc1c(-c2nnc(C3CCCC3)s2)nn(-c2ccc(Cl)cc2Cl)c1-c1ccc(Cl)cc1 [Example 346, 2-(5-(4-chlorophenyl)-1-(2,4-dichlorophenyl)-4-methyl-1H-pyrazol-3-yl)-5-cyclopentyl-1,3,4-thiadiazole]"
6,5.75,"CCc1c(-c2nnc(C3(c4ccc(Cl)cc4)CCC3)o2)nn(-c2ccccc2Cl)c1-c1ccc(Cl)cc1 [Example 147, 2-(1-(2-chlorophenyl)-5-(4-chlorophenyl)-4-ethyl-1H-pyrazol-3-yl)-5-(1-(4-chlorophenyl)cyclobutyl)-1,3,4-oxadiazole]"
7,101,"Cc1c(-c2nnn(C(C)C)n2)nn(-c2ccc(Cl)cc2Cl)c1-c1ccc(Cl)cc1 [Example 576, 5-(5-(4-Chlorophenyl)-1-(2,4-dichlorophenyl)-4-methyl-1H-pyrazol-3-yl)-2-isopropyl-2H-tetrazole]"
8,11.7,"CCC(C)(C)c1nnc(-c2nn(-c3ccccc3Cl)c(-c3ccc(Cl)cc3)c2C)s1 [Example 410, 2-(1-(2-chlorophenyl)-5-(4-chlorophenyl)-4-methyl-1H-pyrazol-3-yl)-5-tert-pentyl-1,3,4-thiadiazole]"
9,27.2,"Cc1c(-c2nnc(C3(Cc4ccc(Cl)cc4)CC3)s2)nn(-c2ccc(Cl)cc2Cl)c1-c1ccc(Cl)cc1 [Example 471, 2-(1-(4-chlorobenzyl)cyclopropyl)-5-(5-(4-chlorophenyl)-1-(2,4-dichlorophenyl)-4-methyl-1H-pyrazol-3-yl)-1,3,4-thiadiazole]"
10,9.27,"Cc1c(-c2nnc(C(C)(C)c3ccccc3)s2)nn(-c2ccccc2Cl)c1-c1ccc(Cl)cc1 [Example 416, 2-(1-(2-chlorophenyl)-5-(4-chlorophenyl)-4-methyl-1H-pyrazol-3-yl)-5-(2-phenylpropan-2-yl)-1,3,4-thiadiazole]"
11,142,"Cc1c(-c2n[nH]c(C(C)C)n2)nn(-c2ccc(Cl)cc2Cl)c1-c1ccc(Cl)cc1 [Example 618, 3-(5-(4-chlorophenyl)-1-(2,4-dichlorophenyl)-4-methyl-1H-pyrazol-3-yl)-5-isopropyl-1H-1,2,4-triazole]"
12,39.8,"Cc1c(-c2nnnn2Cc2ccsc2)nn(-c2ccc(Cl)cc2Cl)c1-c1ccc(Cl)cc1 [Example 597, 5-(5-(4-Chlorophenyl)-1-(2,4-dichlorophenyl)-4-methyl-1H-pyrazol-3-yl)-1-(thiophen-3-ylmethyl)-1H-tetrazole]"
13,16.7,"CC(=O)OCc1c(-c2nnc(C(C)(C)C)s2)nn(-c2ccc(Cl)cc2Cl)c1-c1ccc(Cl)cc1 [Example 521, (3-(5-tert-butyl-1,3,4-thiadiazol-2-yl)-5-(4-chlorophenyl)-1-(2,4-dichlorophenyl)-1H-pyrazol-4-yl)methyl acetate]"
14,14.2,"CCc1c(-c2nnnn2C2CCCC2)nn(-c2ccc(Cl)cc2Cl)c1-c1ccc(Br)cc1 [Example 609, 5-(5-(4-bromophenyl)-1-(2,4-dichlorophenyl)-4-ethyl-1H-pyrazol-3-yl)-1-cyclopentyl-1H-tetrazole]"
15,6.12,"CC(C)(C)c1nnc(-c2nn(-c3ccc(Cl)cc3Cl)c(-c3ccc(Cl)cc3)c2CC#N)o1 [Example 310, 2-(3-(5-tert-butyl-1,3,4-oxadiazol-2-yl)-5-(4-chlorophenyl)-1-(2,4-dichlorophenyl)-1H-pyrazol-4-yl)acetonitrile]"
16,333,"Cc1c(-c2nnc(-c3cc4ccccc4o3)o2)nn(-c2ccc(Cl)cc2Cl)c1-c1ccc(Cl)cc1 [Example 18, 2-(Benzofuran-2-yl)-5-(5-(4-chlorophenyl)-1-(2,4-dichlorophenyl)-4-methyl-1H-pyrazol-3-yl)-1,3,4-oxadiazole]"
17,2.18,"Clc1ccc(-c2c(Cn3cncn3)c(-c3nnc(C4CCC4)s3)nn2-c2ccc(Cl)cc2Cl)cc1 [Example 504, 2-(4-((1H-1,2,4-triazol-1-yl)methyl)-5-(4-chlorophenyl)-1-(2,4-dichlorophenyl)-1H-pyrazol-3-yl)-5-cyclobutyl-1,3,4-thiadiazole]"
18,62.7,"COC(C)c1c(-c2nnc(C(C)(C)C)o2)nn(-c2ccc(Cl)cc2Cl)c1-c1ccc(Cl)cc1 (centres unmarked) [Example 226, 2-tert-butyl-5-(5-(4-chlorophenyl)-1-(2,4-dichlorophenyl)-4-(1-methoxyethyl)-1H-pyrazol-3-yl)-1,3,4-oxadiazole]"
19,195,"Cc1c(-c2nnn(Cc3ccoc3)n2)nn(-c2ccc(Cl)cc2Cl)c1-c1ccc(Cl)cc1 [Example 596, 5-(5-(4-Chlorophenyl)-1-(2,4-dichlorophenyl)-4-methyl-1H-pyrazol-3-yl)-2-(furan-3-ylmethyl)-2H-tetrazole]"
20,289,"Cc1c(-c2nc(C(C)C)n(C)n2)nn(-c2ccc(Cl)cc2Cl)c1-c1ccc(Cl)cc1 [Example 634, 3-(5-(4-chlorophenyl)-1-(2,4-dichlorophenyl)-4-methyl-1H-pyrazol-3-yl)-5-isopropyl-1-methyl-1H-1,2,4-triazole]"
21,199,"Clc1ccc(-c2c(Cl)c(-c3nnc(C4CCC4)s3)nn2-c2ccc(Cl)cc2Cl)cc1 [Example 536, 2-(4-chloro-5-(4-chlorophenyl)-1-(2,4-dichlorophenyl)-1H-pyrazol-3-yl)-5-cyclobutyl-1,3,4-thiadiazole]"
22,74.2,"Cc1c(-c2nnc(CC(F)(F)F)o2)nn(-c2ccc(Cl)cc2Cl)c1-c1ccc(Cl)cc1 [Example 136, 2-(5-(4-chlorophenyl)-1-(2,4-dichlorophenyl)-4-methyl-1H-pyrazol-3-yl)-5-(2,2,2-trifluoroethyl)-1,3,4-oxadiazole]"
23,12.6,"CCC1(c2nnc(-c3nn(-c4ccc(Cl)cc4Cl)c(-c4ccc(Cl)cc4)c3C)o2)CC1 [Example 277, 2-(5-(4-chlorophenyl)-1-(2,4-dichlorophenyl)-4-methyl-1H-pyrazol-3-yl)-5-(1-ethylcyclopropyl)-1,3,4-oxadiazole]"
24,7.6,"CCc1c(-c2nnc(C3(c4ccc(OC)cc4)CC3)s2)nn(-c2ccc(Cl)cc2Cl)c1-c1ccc(Cl)cc1 [Example 481, 2-(5-(4-chlorophenyl)-1-(2,4-dichlorophenyl)-4-ethyl-1H-pyrazol-3-yl)-5-(1-(4-methoxyphenyl)cyclopropyl)-1,3,4-thiadiazole]"
25,103,"Cc1c(-c2nnnn2Cc2cccnc2)nn(-c2ccc(Cl)cc2Cl)c1-c1ccc(Cl)cc1 [Example 585, 3-((5-(5-(4-Chlorophenyl)-1-(2,4-dichlorophenyl)-4-methyl-1H-pyrazol-3-yl)-1H-tetrazol-1-yl)methyl)pyridine]"
26,20.4,"Cc1c(-c2nnc(CC3CCCCC3)s2)nn(-c2ccc(Cl)cc2Cl)c1-c1ccc(Cl)cc1 [Example 365, 2-(5-(4-Chlorophenyl)-1-(2,4-dichlorophenyl)-4-methyl-1H-pyrazol-3-yl)-5-(cyclohexylmethyl)-1,3,4-thiadiazole]"
27,8.31,"COCc1c(-c2nnc(C(C)(C)C)s2)nn(-c2ccc(Cl)cc2Cl)c1-c1ccc(Br)cc1 [Example 524, 2-(5-(4-bromophenyl)-1-(2,4-dichlorophenyl)-4-(methoxymethyl)-1H-pyrazol-3-yl)-5-tert-butyl-1,3,4-thiadiazole]"
28,3.42,"Clc1ccc(-c2c(Cn3cncn3)c(-c3nnc(C4CCC4)o3)nn2-c2ccc(Cl)cc2Cl)cc1 [Example 315, 2-(4-((1H-1,2,4-triazol-1-yl)methyl)-5-(4-chlorophenyl)-1-(2,4-dichlorophenyl)-1H-pyrazol-3-yl)-5-cyclobutyl-1,3,4-oxadiazole]"
29,31.5,"CCc1c(-c2nnc(C3(C)CC3)s2)nn(-c2ccc(Cl)cc2Cl)c1-c1ccc(Cl)cc1 [Example 484, 2-(5-(4-chlorophenyl)-1-(2,4-dichlorophenyl)-4-ethyl-1H-pyrazol-3-yl)-5-(1-methylcyclopropyl)-1,3,4-thiadiazole]"

row,SMILES,IC50 [nM]
1,"CCCCOCc1c(-c2nnc(C(C)(C)C)o2)nn(-c2ccc(Cl)cc2Cl)c1-c1ccc(Cl)cc1 [Example 206, 2-(4-(butoxymethyl)-5-(4-chlorophenyl)-1-(2,4-dichlorophenyl)-1H-pyrazol-3-yl)-5-tert-butyl-1,3,4-oxadiazole]",113
